Source: ChEMBL document CHEMBL1833882, “Preparation and antibacterial evaluation of decarboxylated fluoroquinolones” (2011)
Converted amounts (≈) assume the structure as drawn.

How the values were obtained:
Assay type in all cases: functional
[1] = tested on: Stenotrophomonas maltophilia; experiment: Antibacterial activity against Stenotrophomonas maltophilia ATCC 13637 after 18 hrs by broth dilution method; settings: ATCC 13637, 18 h
Bacillus subtilis = experiment: Antibacterial activity against Bacillus subtilis BD54 after 18 hrs by broth dilution method; settings: BD54, 18 h
Escherichia coli [2] = experiment: Antibacterial activity against TolC deficient Escherichia coli 701 after 18 hrs by broth dilution method; settings: Escherichia coli, 701, 18 h
Enterococcus faecalis [3] = experiment: Antibacterial activity against Enterococcus faecalis ATCC 29212 after 18 hrs by broth dilution method; settings: ATCC 29212, 18 h
Pseudomonas aeruginosa [4] = experiment: Antibacterial activity against Pseudomonas aeruginosa PAO1 harboring oprM deltamexAB after 18 hrs by broth dilution method; settings: PAO1, 18 h
Staphylococcus aureus [5] = experiment: Antibacterial activity against methicillin-resistant Staphylococcus aureus 1094 after 18 hrs by broth dilution method; settings: Staphylococcus aureus, 1094, 18 h
Acinetobacter baumannii = experiment: Antibacterial activity against Acinetobacter baumannii ATCC 19606 after 18 hrs by broth dilution method; settings: ATCC 19606 = CIP 70.34 = JCM 6841, 18 h
Burkholderia cepacia [6] = experiment: Antibacterial activity against Burkholderia cepacia ATCC 39277 after 18 hrs by broth dilution method; settings: ATCC 39277, 18 h
Staphylococcus aureus [7] = experiment: Antibacterial activity against Staphylococcus aureus ATCC 25923 after 18 hrs by broth dilution method; settings: ATCC 25923, 18 h
Escherichia coli [8] = experiment: Antibacterial activity against Escherichia coli 700 expressing TolC after 18 hrs by broth dilution method; settings: Escherichia coli, 700, 18 h
Bacillus anthracis = experiment: Antibacterial activity against Bacillus anthracis Sterne after 18 hrs by broth dilution method
Pseudomonas aeruginosa [9] = experiment: Antibacterial activity against Pseudomonas aeruginosa PAO1 ATCC BAA-47 after 18 hrs by broth dilution method; settings: PAO1 ATCC BAA-47, 18 h
Klebsiella pneumoniae [10] = experiment: Antibacterial activity against Klebsiella pneumoniae ATCC 700603 after 18 hrs by broth dilution method; settings: ATCC 700603, 18 h
Enterococcus faecalis [11] = experiment: Antibacterial activity against vancomycin-resistant Enterococcus faecalis ATCC 51575 after 18 hrs by broth dilution method; settings: ATCC 51575, 18 h
Burkholderia cepacia [12] = experiment: Antibacterial activity against Burkholderia cepacia ATCC 55792 after 18 hrs by broth dilution method; settings: ATCC 55792, 18 h
Klebsiella pneumoniae [13] = experiment: Antibacterial activity against Klebsiella pneumoniae ATCC 13882 after 18 hrs by broth dilution method; settings: ATCC 13882, 18 h
Escherichia coli [14] = experiment: Antibacterial activity against Escherichia coli ATCC 29425 after 16 to 18 hrs by agar dilution method
Staphylococcus aureus [15] = experiment: Antibacterial activity against Staphylococcus aureus ATCC 25923 after 16 to 18 hrs by agar dilution method
Escherichia coli [16] = experiment: Antibacterial activity against Escherichia coli ATCC 29425 after 18 hrs by broth dilution method; settings: ATCC 29425, 18 h
Enterococcus faecalis [17] = experiment: Antibacterial activity against Enterococcus faecalis ATCC 29212 after 16 to 18 hrs by agar dilution method

Structure (SMILES) | MIC [1] | MIC (Bacillus subtilis) | MIC (Escherichia coli [2]) | MIC (Enterococcus faecalis [3]) | MIC (Pseudomonas aeruginosa [4]) | MIC (Staphylococcus aureus [5]) | MIC (Acinetobacter baumannii) | MIC (Burkholderia cepacia [6]) | MIC (Staphylococcus aureus [7]) | MIC (Escherichia coli [8]) | MIC (Bacillus anthracis) | MIC (Pseudomonas aeruginosa [9]) | MIC (Klebsiella pneumoniae [10]) | MIC (Enterococcus faecalis [11]) | MIC (Burkholderia cepacia [12]) | MIC (Klebsiella pneumoniae [13]) | MIC (Escherichia coli [14]) | MIC (Staphylococcus aureus [15]) | MIC (Escherichia coli [16]) | MIC (Enterococcus faecalis [17])
CC1CN(c2c(F)cc3c(=O)c(C(=O)O)cn(C4CC4)c3c2F)CCN1 (stereo not drawn) | 0.039 µg/mL (≈ 0.107 µM) | 0.078 µg/mL (≈ 0.215 µM) | ≤ 0.02 µg/mL | 0.625 µg/mL (≈ 1.72 µM) | 0.039 µg/mL (≈ 0.107 µM) | 10 µg/mL (≈ 27.5 µM) | 0.313 µg/mL (≈ 0.861 µM) | 0.078 µg/mL (≈ 0.215 µM) | 0.235 µg/mL (≈ 0.647 µM) | ≤ 0.02 µg/mL | 0.078 µg/mL (≈ 0.215 µM) | 1.25 µg/mL (≈ 3.44 µM) | 0.313 µg/mL (≈ 0.861 µM) | 0.625 µg/mL (≈ 1.72 µM) | 0.235 µg/mL (≈ 0.647 µM) | ≤ 0.02 µg/mL |  |  |  | 
CCN1CCN(c2cc3c(cc2F)c(=O)c(C(=O)O)cn3C2CC2)CC1 [ENROFLOXACIN] | 0.098 µg/mL (≈ 0.273 µM) | 0.078 µg/mL (≈ 0.217 µM) | ≤ 0.01 µg/mL | 0.625 µg/mL (≈ 1.74 µM) | 0.078 µg/mL (≈ 0.217 µM) | 5 µg/mL (≈ 13.9 µM) | 0.235 µg/mL (≈ 0.654 µM) | 0.098 µg/mL (≈ 0.273 µM) | 0.156 µg/mL (≈ 0.434 µM) | 0.049 µg/mL (≈ 0.136 µM) | 0.078 µg/mL (≈ 0.217 µM) | 4.4 µg/mL (≈ 12.2 µM) | 0.625 µg/mL (≈ 1.74 µM) | 0.625 µg/mL (≈ 1.74 µM) | 0.625 µg/mL (≈ 1.74 µM) | 0.098 µg/mL (≈ 0.273 µM) | < 0.06 µg/mL | 0.13 µg/mL (≈ 0.362 µM) | 0.05 µg/mL (≈ 0.139 µM) | 0.13 µg/mL (≈ 0.362 µM)
CCN1CCN(c2cc3c(cc2F)c(=O)ccn3C2CC2)CC1 | > 80 µg/mL | > 80 µg/mL | > 80 µg/mL | > 80 µg/mL | > 80 µg/mL | > 80 µg/mL | > 80 µg/mL | > 80 µg/mL | > 80 µg/mL | > 80 µg/mL | > 80 µg/mL | > 80 µg/mL | > 80 µg/mL | > 80 µg/mL | > 80 µg/mL | > 80 µg/mL | > 64 µg/mL | > 64 µg/mL | > 80 µg/mL | > 64 µg/mL
CC1CN(c2c(F)cc3c(=O)ccn(C4CC4)c3c2F)CCN1 (stereo not drawn) | > 80 µg/mL | > 80 µg/mL | 15 µg/mL (≈ 47 µM) | > 80 µg/mL | 40 µg/mL (≈ 125 µM) | > 80 µg/mL | > 80 µg/mL | > 80 µg/mL | > 80 µg/mL | > 80 µg/mL | 80 µg/mL (≈ 251 µM) | > 80 µg/mL | > 80 µg/mL | > 80 µg/mL | > 80 µg/mL | > 80 µg/mL | > 64 µg/mL | > 64 µg/mL | > 80 µg/mL | > 64 µg/mL
CCn1ccc(=O)c2cc(F)c(N3CCNCC3)cc21 | > 80 µg/mL | 80 µg/mL (≈ 291 µM) | 5 µg/mL (≈ 18.2 µM) | > 80 µg/mL | 40 µg/mL (≈ 145 µM) | > 80 µg/mL | > 80 µg/mL | > 80 µg/mL | > 80 µg/mL | 40 µg/mL (≈ 145 µM) | 80 µg/mL (≈ 291 µM) | > 80 µg/mL | > 80 µg/mL | > 80 µg/mL | > 80 µg/mL | 40 µg/mL (≈ 145 µM) | 64 µg/mL (≈ 232 µM) | > 64 µg/mL | 40 µg/mL (≈ 145 µM) | 32 µg/mL (≈ 116 µM)
O=CN1CCN(c2cc3c(cc2F)c(=O)c(C(=O)O)cn3C2CC2)CC1 | 1.25 µg/mL (≈ 3.48 µM) | 0.117 µg/mL (≈ 0.326 µM) | ≤ 0.078 µg/mL | 0.625 µg/mL (≈ 1.74 µM) | ≤ 0.078 µg/mL | 40 µg/mL (≈ 111 µM) | 2.5 µg/mL (≈ 6.96 µM) | 0.313 µg/mL (≈ 0.871 µM) | 0.313 µg/mL (≈ 0.871 µM) | 0.313 µg/mL (≈ 0.871 µM) | 0.235 µg/mL (≈ 0.654 µM) | 10 µg/mL (≈ 27.8 µM) | 5 µg/mL (≈ 13.9 µM) | 2.5 µg/mL (≈ 6.96 µM) | 1.25 µg/mL (≈ 3.48 µM) | 0.156 µg/mL (≈ 0.434 µM) | 0.5 µg/mL (≈ 1.39 µM) | 0.5 µg/mL (≈ 1.39 µM) | 0.5 µg/mL (≈ 1.39 µM) | 1 µg/mL (≈ 2.78 µM)
CCn1ccc(=O)c2cc(F)c(N3CCN(C=O)CC3)cc21 | > 80 µg/mL | > 80 µg/mL | 40 µg/mL (≈ 132 µM) | > 80 µg/mL | 80 µg/mL (≈ 264 µM) | > 80 µg/mL | > 80 µg/mL | > 80 µg/mL | > 80 µg/mL | 40 µg/mL (≈ 132 µM) | > 80 µg/mL | > 80 µg/mL | > 80 µg/mL | > 80 µg/mL | > 80 µg/mL | > 80 µg/mL | > 64 µg/mL | > 64 µg/mL | 40 µg/mL (≈ 132 µM) | > 64 µg/mL
CCn1cc(C(=O)O)c(=O)c2cc(F)c(N3CCNCC3)cc21 [NORFLOXACIN] | 1.25 µg/mL (≈ 3.91 µM) | 0.625 µg/mL (≈ 1.96 µM) | 0.039 µg/mL (≈ 0.122 µM) | 2.5 µg/mL (≈ 7.83 µM) | 0.039 µg/mL (≈ 0.122 µM) | 40 µg/mL (≈ 125 µM) | 10 µg/mL (≈ 31.3 µM) | 1.25 µg/mL (≈ 3.91 µM) | 1.25 µg/mL (≈ 3.91 µM) | 0.059 µg/mL (≈ 0.185 µM) | 0.313 µg/mL (≈ 0.98 µM) | 1.25 µg/mL (≈ 3.91 µM) | 0.938 µg/mL (≈ 2.94 µM) | 2.5 µg/mL (≈ 7.83 µM) | 2.5 µg/mL (≈ 7.83 µM) | 0.117 µg/mL (≈ 0.366 µM) | 0.01 µg/mL (≈ 0.0313 µM) | 2 µg/mL (≈ 6.26 µM) | 0.12 µg/mL (≈ 0.376 µM) | 2 µg/mL (≈ 6.26 µM)
O=C(O)c1cn(C2CC2)c2cc(N3CCNCC3)c(F)cc2c1=O [CIPROFLOXACIN] | 0.156 µg/mL (≈ 0.471 µM) | 0.156 µg/mL (≈ 0.471 µM) |  | 1.25 µg/mL (≈ 3.77 µM) | 0.02 µg/mL (≈ 0.0604 µM) | 20 µg/mL (≈ 60.4 µM) | 1.25 µg/mL (≈ 3.77 µM) | 0.078 µg/mL (≈ 0.235 µM) | 0.625 µg/mL (≈ 1.89 µM) |  |  | 0.313 µg/mL (≈ 0.945 µM) | 0.313 µg/mL (≈ 0.945 µM) | 0.625 µg/mL (≈ 1.89 µM) | 0.625 µg/mL (≈ 1.89 µM) | 0.039 µg/mL (≈ 0.118 µM) | < 0.06 µg/mL | 0.5 µg/mL (≈ 1.51 µM) | < 0.02 µg/mL | 0.5 µg/mL (≈ 1.51 µM)
O=c1ccn(C2CC2)c2cc(N3CCNCC3)c(F)cc12 | > 80 µg/mL | > 80 µg/mL | > 80 µg/mL | > 80 µg/mL | 80 µg/mL (≈ 278 µM) | > 80 µg/mL | > 80 µg/mL | > 80 µg/mL | > 80 µg/mL | > 80 µg/mL | > 80 µg/mL | > 80 µg/mL | > 80 µg/mL | > 80 µg/mL | > 80 µg/mL | > 80 µg/mL | > 64 µg/mL | > 64 µg/mL | > 80 µg/mL | > 64 µg/mL
O=CN1CCN(c2cc3c(cc2F)c(=O)ccn3C2CC2)CC1 | > 80 µg/mL | > 80 µg/mL | > 80 µg/mL | > 80 µg/mL | > 80 µg/mL | > 80 µg/mL | > 80 µg/mL | > 80 µg/mL | > 80 µg/mL | > 80 µg/mL | > 80 µg/mL | > 80 µg/mL | > 80 µg/mL | > 80 µg/mL | > 80 µg/mL | > 80 µg/mL | > 64 µg/mL | > 64 µg/mL | > 80 µg/mL | > 64 µg/mL
